Test: Biodistribution of 177Lu-labeled αMSH analogues in mice bearing SK-MEL-1 human melanoma
Settings: male, mouse, total radioactivity; for tissue to tissue ratio at 1 h: 1 h p.i.; for tissue to tissue ratio at 1 h / tissue to tissue ratio at 4 h / tissue to tissue ratio at 24 h / tissue to tissue ratio at 120 h: NRG mice, SK-MEL-1 melanoma; for tissue to tissue ratio at 4 h: 4 h p.i.; for tissue to tissue ratio at 24 h: 24 h p.i.; for tissue to tissue ratio at 120 h: 120 h p.i.
[1] = NRG (NOD.Cg-Rag1tm1Mom I12rgtm1Wjl/SzJ), fat, iv
[2] = NRG (NOD.Cg-Rag1tm1Mom I12rgtm1Wjl/SzJ), seminal glands, iv
[3] = NRG (NOD.Cg-Rag1tm1Mom Il2rgtm1Wjl/SzJ), SK-MEL-1 tumour
[4] = NRG (NOD.Cg-Rag1tm1Mom Il2rgtm1Wjl/SzJ), adrenal glands
[5] = NRG (NOD.Cg-Rag1tm1Mom Il2rgtm1Wjl/SzJ), blood
[6] = NRG (NOD.Cg-Rag1tm1Mom Il2rgtm1Wjl/SzJ), bone
[7] = NRG (NOD.Cg-Rag1tm1Mom Il2rgtm1Wjl/SzJ), brain
[8] = NRG (NOD.Cg-Rag1tm1Mom Il2rgtm1Wjl/SzJ), heart
[9] = NRG (NOD.Cg-Rag1tm1Mom Il2rgtm1Wjl/SzJ), intestine
[10] = NRG (NOD.Cg-Rag1tm1Mom Il2rgtm1Wjl/SzJ), kidneys
[11] = NRG (NOD.Cg-Rag1tm1Mom Il2rgtm1Wjl/SzJ), liver
[12] = NRG (NOD.Cg-Rag1tm1Mom Il2rgtm1Wjl/SzJ), lungs
[13] = NRG (NOD.Cg-Rag1tm1Mom Il2rgtm1Wjl/SzJ), muscle
[14] = NRG (NOD.Cg-Rag1tm1Mom Il2rgtm1Wjl/SzJ), pancreas
[15] = NRG (NOD.Cg-Rag1tm1Mom Il2rgtm1Wjl/SzJ), spleen
[16] = NRG (NOD.Cg-Rag1tm1Mom Il2rgtm1Wjl/SzJ), stomach
[17] = NRG (NOD.Cg-Rag1tm1Mom Il2rgtm1Wjl/SzJ), testes
[18] = NRG (NOD.Cg-Rag1tm1Mom Il2rgtm1Wjl/SzJ), thyroid
[19] = NRG (NOD.Cg-Rag1tm1Mom Il2rgtm1Wjl/SzJ), tumour/blood
[20] = NRG (NOD.Cg-Rag1tm1Mom Il2rgtm1Wjl/SzJ), tumour/kidney
[21] = NRG (NOD.Cg-Rag1tm1Mom Il2rgtm1Wjl/SzJ), tumour/muscle
[22] = NRG (NOD.Cg-Rag1tm1Mom Il2rgtm1Wjl/SzJ), urine

Description: The SK-MEL-1 human melanoma cell line (HTB-67) was obtained commercially from ATCC. SK-MEL-1 cells were cultured in Eagle's Minimum Essential Medium (StemCell Technologies) under the same conditions as described in Example 1. Immunodeficient NOD.Cg-Rag1tm1Mom I12rgtm1Wjl/SzJ (NRG) male mice were obtained from an in-house breeding colony at the BC Cancer Research Centre. For tumor implantation, male NRG mice were anesthetized by inhalation with 2% isoflurane, and 5 million SK-MEL-1 cells were inoculated subcutaneously on the right dorsal flank. Mice were used for imaging or biodistribution studies when the tumors reached 6-8 mm in diameter in 16-20 days.
Biodistribution studies were performed as described in Example 3.

CCCC[C@H](NC(=O)CN1CCC(NC(=O)[C@H](CCCCNC(=O)CN2CCN(CC(=O)O)CCN(CC(=O)O)CCN(CC(=O)O)CC2)NC(=O)[C@H](CCC(=O)O)NC(=O)CCCc2ccc(I)cc2)CC1)C(=O)N[C@H]1CC(=O)NCCCC[C@@H](C(N)=O)N(C)C(=O)[C@H](Cc2c[nH]c3ccccc23)NC(=O)[C@H](CCCNC(=N)N)N(C)C(=O)[C@@H](Cc2ccccc2)NC(=O)[C@H](Cc2c[nH]cn2)NC1=O [^177Lu-labeled CCZ01118, metal not drawn]
tissue uptake at 1 h [1]: 1.18 ± 0.08 %ID/g
tissue uptake at 4 h [1]: 0.45 ± 0.26 %ID/g
tissue uptake at 24 h [1]: 0.1 ± 0.05 %ID/g
tissue uptake at 120 h [1]: 0.08 ± 0.02 %ID/g
tissue uptake at 1 h [2]: 0.59 ± 0.08 %ID/g
tissue uptake at 4 h [2]: 1.53 ± 2.82 %ID/g
tissue uptake at 24 h [2]: 0.06 ± 0.01 %ID/g
tissue uptake at 120 h [2]: 0.03 ± 0.01 %ID/g
tissue uptake at 1 h [3]: 10.5 ± 3.29 %ID/g
tissue uptake at 4 h [3]: 14 ± 2.36 %ID/g
tissue uptake at 24 h [3]: 10.1 ± 2.13 %ID/g
tissue uptake at 120 h [3]: 4.8 ± 0.26 %ID/g
tissue uptake at 1 h [4]: 2.99 ± 2.15 %ID/g
tissue uptake at 4 h [4]: 1.21 ± 0.59 %ID/g
tissue uptake at 24 h [4]: 0.27 ± 0.13 %ID/g
tissue uptake at 120 h [4]: 0.3 ± 0.16 %ID/g
tissue uptake at 1 h [5]: 9.63 ± 0.78 %ID/g
tissue uptake at 4 h [5]: 2.46 ± 0.64 %ID/g
tissue uptake at 24 h [5]: 0.07 ± 0.03 %ID/g
tissue uptake at 120 h [5]: 0.02 %ID/g
tissue uptake at 1 h [6]: 1.1 ± 0.5 %ID/g
tissue uptake at 4 h [6]: 0.35 ± 0.08 %ID/g
tissue uptake at 24 h [6]: 0.15 ± 0.02 %ID/g
tissue uptake at 120 h [6]: 0.26 ± 0.39 %ID/g
tissue uptake at 1 h [7]: 0.17 ± 0.02 %ID/g
tissue uptake at 4 h [7]: 0.06 ± 0.01 %ID/g
tissue uptake at 24 h [7]: 0.01 %ID/g
tissue uptake at 120 h [7]: 0.01 %ID/g
tissue uptake at 1 h [8]: 2.5 ± 0.3 %ID/g
tissue uptake at 4 h [8]: 0.84 ± 0.23 %ID/g
tissue uptake at 24 h [8]: 0.14 ± 0.04 %ID/g
tissue uptake at 120 h [8]: 0.08 ± 0.02 %ID/g
tissue uptake at 1 h [9]: 1.42 ± 0.22 %ID/g
tissue uptake at 4 h [9]: 0.79 ± 0.5 %ID/g
tissue uptake at 24 h [9]: 0.19 ± 0.03 %ID/g
tissue uptake at 120 h [9]: 0.08 ± 0.01 %ID/g
tissue uptake at 1 h [10]: 13.4 ± 2.53 %ID/g
tissue uptake at 4 h [10]: 12.8 ± 2.29 %ID/g
tissue uptake at 24 h [10]: 6.48 ± 1.25 %ID/g
tissue uptake at 120 h [10]: 1.69 ± 0.13 %ID/g
tissue uptake at 1 h [11]: 6.91 ± 1.09 %ID/g
tissue uptake at 4 h [11]: 5.77 ± 1.62 %ID/g
tissue uptake at 24 h [11]: 4.36 ± 1.11 %ID/g
tissue uptake at 120 h [11]: 2.42 ± 0.33 %ID/g
tissue uptake at 1 h [12]: 6.59 ± 1.06 %ID/g
tissue uptake at 4 h [12]: 2.5 ± 0.67 %ID/g
tissue uptake at 24 h [12]: 0.86 ± 0.87 %ID/g
tissue uptake at 120 h [12]: 0.15 ± 0.12 %ID/g
tissue uptake at 1 h [13]: 0.98 ± 0.12 %ID/g
tissue uptake at 4 h [13]: 0.36 ± 0.11 %ID/g
tissue uptake at 24 h [13]: 0.05 ± 0.01 %ID/g
tissue uptake at 120 h [13]: 0.02 ± 0.01 %ID/g
tissue uptake at 1 h [14]: 1.4 ± 0.24 %ID/g
tissue uptake at 4 h [14]: 0.49 ± 0.08 %ID/g
tissue uptake at 24 h [14]: 0.1 ± 0.02 %ID/g
tissue uptake at 120 h [14]: 0.05 %ID/g
tissue uptake at 1 h [15]: 3.06 ± 0.53 %ID/g
tissue uptake at 4 h [15]: 1.45 ± 0.33 %ID/g
tissue uptake at 24 h [15]: 1.2 ± 0.56 %ID/g
tissue uptake at 120 h [15]: 0.98 ± 0.29 %ID/g
tissue uptake at 1 h [16]: 0.56 ± 0.1 %ID/g
tissue uptake at 4 h [16]: 0.44 ± 0.25 %ID/g
tissue uptake at 24 h [16]: 0.36 ± 0.2 %ID/g
tissue uptake at 120 h [16]: 0.13 ± 0.05 %ID/g
tissue uptake at 1 h [17]: 1.58 ± 0.32 %ID/g
tissue uptake at 4 h [17]: 0.84 ± 0.2 %ID/g
tissue uptake at 24 h [17]: 0.22 ± 0.04 %ID/g
tissue uptake at 120 h [17]: 0.16 ± 0.04 %ID/g
tissue uptake at 1 h [18]: 4.03 ± 0.45 %ID/g
tissue uptake at 4 h [18]: 3.11 ± 0.46 %ID/g
tissue uptake at 24 h [18]: 2.49 ± 0.64 %ID/g
tissue uptake at 120 h [18]: 1.83 ± 0.21 %ID/g
tissue to tissue ratio at 1 h [19]: 1.08 ± 0.3
tissue to tissue ratio at 4 h [19]: 5.84 ± 0.96
tissue to tissue ratio at 24 h [19]: 165 ± 50.1
tissue to tissue ratio at 120 h [19]: 246 ± 28.6
tissue to tissue ratio at 1 h [20]: 0.77 ± 0.12
tissue to tissue ratio at 4 h [20]: 1.1 ± 0.08
tissue to tissue ratio at 24 h [20]: 1.55 ± 0.1
tissue to tissue ratio at 120 h [20]: 2.85 ± 0.22
tissue to tissue ratio at 1 h [21]: 10.6 ± 2.98
tissue to tissue ratio at 4 h [21]: 41.5 ± 9.8
tissue to tissue ratio at 24 h [21]: 201 ± 10.4
tissue to tissue ratio at 120 h [21]: 269 ± 79.1
excreta dose per gram or mL at 1 h [22]: 376 ± 154 %ID/g
excreta dose per gram or mL at 4 h [22]: 154 ± 39.2 %ID/g
excreta dose per gram or mL at 24 h [22]: 5.39 ± 1.23 %ID/g
excreta dose per gram or mL at 120 h [22]: 1.12 ± 0.38 %ID/g

Reference: US11395857B2, “Radiolabeled melanocortin 1 receptor-specific alpha-melanocyte-stimulating hormone analogues for imaging or therapy” (PROVINCIAL HEALTH SERVICES AUTHORITY, priority 2018, dated 2022)
